Values quoted from earlier work as cited in patent publication US10329321B2, “Site-selective functionalization of proteins using traceless affinity labels” (priority 2016, dated 2019).

Key:
[1] = imidazole ring of histidine or its fluorinated replacement
[2] = molecular target: nucleotide binding pocket (NBP) in immunoglobulin Fab arms; conditions: binding affinity dependent on the antibody

| Structure (SMILES) | pKa [1] | Kd [2] [µM] |
| --- | --- | --- |
| Fc1c[nH]cn1 [4-fluoro-imidazole] | ~1.76 | – |
| Fc1ncc[nH]1 [2-fluoro-imidazole] | ~1.22 | – |
| N[C@@H](Cc1c[nH]cn1)C(=O)O [histidine] | ~6 | – |
| O=C(O)CCCc1c[nH]c2ccccc12 [indole-3-butryic acid, 4-(3-indolyl)butyric acid] | – | 1 to 8 |
